pEC50: −log10 of the molar value.
Assays:
[1] = system: HepG2; assay: Induction of apoptosis in human HepG2 cells at 50 uM incubated for 24 hrs by Annexin V-FITC and propidium iodide staining based microcapillary flow cytometry; assay type: functional
[2] = system: HepG2; assay: Induction of apoptosis in human HepG2 cells incubated for 24 hrs by Annexin V-FITC and propidium iodide staining based microcapillary flow cytometry; assay type: functional, cell-based; details: HepG2, 24 h
[3] = system: THP-1; assay: Induction of apoptosis in human THP1 cells incubated for 24 hrs by Annexin V-FITC and propidium iodide staining based microcapillary flow cytometry; assay type: functional, cell-based; details: THP-1, 24 h
[4] = system: THP-1; assay: Induction of apoptosis in human THP1 cells at 50 uM incubated for 24 hrs by Annexin V-FITC and propidium iodide staining based microcapillary flow cytometry; assay type: functional
[5] = system: THP-1; assay: Induction of cell cycle arrest in human THP1 cells assessed accumulation at subG1 phase at 25 uM incubated for 24 hrs by propidium iodide staining based microcapillary flow cytometry (reference value: 2 +/- 1%); assay type: functional
[6] = system: THP-1; assay: Induction of cell cycle arrest in human THP1 cells assessed accumulation at subG1 phase at 25 uM incubated for 48 hrs by propidium iodide staining based microcapillary flow cytometry (reference value: 2 +/- 1%); assay type: functional

| pEC50 [2] | pEC50 [3] | SMILES | Activity [1] | Activity [4] | Activity [5] | Activity [6] |
| --- | --- | --- | --- | --- | --- | --- |
| 4.70 | 4.62 | CNc1nc(-c2cccc(NC(=O)c3cc4ccccc4[nH]3)c2)c[nH]1.Cl | 91% | 87% | 18% | 49% |
| 4.80 | 4.62 | Cl.Nc1nc(-c2cccc(NC(=O)c3cc4cc(Cl)ccc4[nH]3)c2)c[nH]1 | 93% | 87% | 26% | 40% |
